Measured values from paper PMC7200681, “The calcitonin-like system is an ancient regulatory system of biomineralization” (Scientific Reports, 2020).
Bridge positions count the residues as written; N and C are the ends.

Tests used:
mussel mantle cells = test: Calcium uptake by isolated mantle cells (calcein fluorescence); type: cell-based, Mytilus galloprovincialis; details: CALCIIa 10 μM, 4 hours, calcein 50 mM
Description: Figure 7 Effect of the mussel calcitonin-like peptide on (A) calcium (ppm) concentration in the mantle edge and (B) calcium uptake by mantle cells of the Mediterranean mussel. (A) The quantity of calcium (ppm) present in the mantle edge after mussel CALCIIa peptide incubation was measured using a Microwave Plasma-Atomic Emission Spectrometer (MP-AES, Agilent) at 393.366 nm. A standard curve for calcium was performed before analysing the samples. In vitro mantle assays with CALCIIa peptide and with ouabain and control (culture medium and mantle) were repeated on at least 3 independent occasions. […] An increase in cellular fluorescence represents an increase in calcium uptake. Fluorescence of the CALCIIa peptide stimulated cells was 1.9 times higher than the control. The average mantle cell size was 3–4 μm and fluorescent images were taken using a Leica DM IL microscope coupled to a Visicam HDMI 6 digital camera and photographs were analysed using ImageJ software (v. 1.52a) to calculate the fluorescence intensity and for image overlay. […]
Mantle cells were isolated from Mediterranean mussel mantle edge explants of the posterior region and were incubated with the CALCIIa peptide. […] Photographs were analysed for image overlay and to calculate fluorescence intensity (corrected total cell fluorescence, CTCF) using ImageJ software (v. 1.52a). […]

[1] = test system: mussel CALCR-like (CALCRIa, CALCRIc, CALCRIIa, CALCRIIb and CALCRIIc); test: Calcium mobilization, initial single-concentration test on the mussel receptors; type: cell-based; details: 10 µM peptide; % of carbachol (100uM) response; single experiment with six replicates (Supplementary Figure 7B)
Description: Mammalian cell cultures and transfections followed the methodology described by[89],[90]. Mammalian HEK293 cells (ECACC, UK) were used and they were maintained in complete Dulbecco’s modified Eagle’s medium (DMEM, 4.5 g/l glucose, 110 mg/l sodium pyruvate and L-glutamine, SIGMA-ALDRICH, Spain) supplemented with 10% sterile foetal bovine serum (FBS), 0.1% penicillin: streptomycin antibiotic mix (10,000 U:10 mg/ml, Sigma) and 250 μg /ml sterile filtered 1:100 amphotericin B solution (SIGMA-ALDRICH) in a humid 5% CO2 incubator (HERAEUS, Portugal) at 37 °C. […] Cell recovery was monitored daily and the medium was changed every two days until no cell death was observed. […]
HEK293 cells stably expressing five mussel receptors (CALCRIa, CALCRIc, CALCRIIa, CALCRIIb and CALCRIIc) were stimulated with the two mussel peptides and the vertebrate (human and salmon) calcitonins. Receptor activation was assessed in vitro by measuring two intracellular signalling pathways: a) production of cAMP and b) mobilization of calcium (Ca^2+). The cellular response was initially assessed using 10 μM of each peptide. […]
Stable cell lines expressing the mussel receptors were transiently co-transfected with the mitochondrial targeted apo-aequorin protein cloned in pcDNA3.1. […] Peptide potency was determined as the total area under the activation curve. Data was calculated as a % of the highest response (100% activation). […]

H-CTWGGGMSDEMCSTVDIDEIQRSFQVIHDRNSP-NH2 (disulfide 1-12 (inferred)) [CALCIIa, Mediterranean mussel calcitonin-like mature peptide, 33 aa, synthesized with disulphide bond and C-terminal amidation]
Increase in intensity of fluorescent calcium staining versus control mantle cells (mussel mantle cells; ImageJ CTCF): 1.9 times | Mean corrected total cell fluorescence (CTCF) of mantle cells (mussel mantle cells; control = 1405154): 2654581 | Stimulation of mussel CALCR-like, intracellular calcium (in words) [1]: elicited a high response
